Measurements reported in patent US6231894A, “Treatments based on discovery that nitric oxide synthase is a paraquat diaphorase” (Duke University, priority 1999, dated 2001).

Experiments:
[1] = system: restenosis; experiment: Working Example VIII: restenosis patient; type: in vivo, human; settings: 10 mg locally instilled via balloon, repeat angioplasty
Method: A person undergoes angioplasty of the left anterior descending coronary artery. Two weeks following procedure, they present with chest pain and the radiographic evidence of restenosis. They undergo repeat angioplasty with infusion of paraquat (dosage of 10 mg), locally instilled under pressure via the balloon.

[2] = biological target: T1, Recombinant rat neuronal nitric oxide synthase (NOS1) (Rattus norvegicus, UniProt P29476); experiment: NADPH oxidation (paraquat diaphorase activity) by recombinant rat neuronal nitric oxide synthase; type: biochemical
T1 construct: purchased Oxis, Portland, Oreg
Method: Recombinant rat neuronal nitric oxide synthase (NOS1, Oxis, Portland, Oreg.), a constitutive enzyme, was used to assay NADPH oxidation in the presence of increasing concentrations of paraquat. Reactions (0.2 ml) were performed in bis-tris propane buffer (40 mM) containing L-arginine (1 mM), CaCl2 (1.2 mM), EDTA (0.9 mM), NADPH (0.35 mM), dithiothreitol (3 mM), tetrahydrobiopterin (4 μM), catalase (1 μg/ml) and calmodulin (200 U/ml) at pH 7.4. Reactions were initiated by the addition of 1.5 U of NOS1, and the oxidation of NADPH was continuously monitored at 340 nm for 1 minute at 37° C. in a plate reader. The rate of NOS-mediated NADPH oxidation was determined using an extinction coefficient of 6.22 mM^-1 cm^-1 after subtracting the baseline of NADPH oxidation.
The experiment of Background Example 1 for NADPH oxidation was carried out in the presence and absence of 25 μM paraquat, without any NOS inhibitor (control), in the presence of L-NAME (1 mM) or in the presence of 1 mM L-NMMA. […] Only L-NAME shut down the NADPH oxidase activity.

[3] = system: CPA-47 endothelial cell line; experiment: LDH release from endothelial cells (cytotoxicity); type: cell-based; settings: 2 mM paraquat, 24 hours; FIG. 2(b)
Method: To test whether the above effect was present in intact cells, endothelial cell cultures, constitutively expressing NOS3 protein as determined by western blot analysis, were treated with 2 mM paraquat in the presence of increasing concentrations of either L-NAME or L-NMMA.
The endothelial cells were obtained as follows: CPA-47 endothelial cell line (CRL-1733) was purchased from American Type Culture Collection (Manassas, Va.). Endothelial cells were grown in T-75 flasks containing Ham's F-12 K medium supplemented by 1 mM […] and 10% equine serum (Gibco-BRL, Grand Island, N.Y.). Endothelial cells were plated at 3.5×10^4 cells/well in 24-well plates and experiments were performed 48 hours later when cells were near confluence. Medium was changed to minimal essential medium without serum supplement. Endothelial cells were from passages 30-36.
Cytotoxicity was measured as the percent release of LDH and compared to vehicl-treated cells (basal). The percent release of cytosolic lactate dehydrogenase (LDH) into the culture medium was used to assess the integrity of the cell membrane. LDH activity was measured by following the loss of NADH at 340 nm as described in Day, B. J., et al., J. Pharmacol. Exp. Ther. 275, 1227-1232 (1995). The percent release of LDH into the culture medium 24 hours after the paraquat treatment was used to assess cell injury.

[4] = Working Example XIII: accident victim with hypotension; type: in vivo, human; settings: IV 0.4 milligrams per kilogram over 2 hours
Method: A accident victim presents with a blood pressure of 80/60 and a hematocrit of 20. They are bleeding profusely from an abdominal would and doctors are having difficulty maintaining their blood pressure with fluid resuscitation. They are begun on an intravenous drip of paraquat of 0.4 milligrams per kilogram over 2 hours.

[5] = system: Rabbit aortic rings; experiment: Acetylcholine-induced (EDRF) relaxation of aortic rings
Method: Rabbit aortic rings were treated with increasing concentrations of paraquat or L-NAME (2 mM) prior to initiating a constriction response with 1 μM phenylephrine (initial contraction).
New Zealand white male rabbits weighting 3-4 kg were anaesthetized with phenobarbital (30 mg/kg/iv). The descending thoracic aorta was isolated and placed in Krebs-Henseleit buffer (pH 7.4) and stored at 4° C. until used. The vessels were cut into 5 mm rings and submerged in 25 ml double jacketed tissue baths containing Krebs-Henseleit buffer bubbled with 95% oxygen and 5% carbon dioxide at 37° C. Rings were hung on stainless steel stirrups connected to calibrated force transducers. Rings were equilibrated with 2 g resting tension for 1 hour before use and contracted with phenylephrine (1 μM). Rings were incubated with paraquat for 15 minutes before acetylcholine-induced or exogenous relaxations were performed.
Endothelial-derived relaxing factor (EDRF) responses were initiated by addition of acetylcholine.

[6] = system: aconitase; experiment: Aconitase/fumarase activity ratio in macrophage lysates; type: cell-based; settings: 24 hours, FIG. 5
Method: Aconitase activity (a sensitive marker of O2^- and peroxynitrite formation) and fumarase activity were measured as described in Patel, M., et al., Nuron 16, 345-355 (1996). Specifically aconitase activity was determined spectrophotometrically by monitoring the formation of cis-aconitate from isocitrate at 240 nm. Fumarase activity was measured by monitoring the increased absorbence at 240 mn following the formation of fumarate from L-malate. Aconitase activity was expressed as a ratio of aconitase activity to flimarase activity in order to correct for differences in cell numbers.
Aconitase activity was measured in cell lysates 24 hours after cytomix, DETA nonoate and paraquat treatments. Macrophages were grown in 24-well plates and treated with cytomix or 250 μM DETA NONOate. Control, activated (cytomix) and DETA NONOate groups were treated with paraquat (0.1 mM) or not treated with paraquat. The results are shown in FIG. 5 where an asterisk indicates a significant difference from control group, p<0.05.

[7] = system: NOS2; experiment: NOS2 expression in macrophages; type: cell-based; settings: 0.1 mM paraquat, cytomix; data not shown
Method: The RAW-264.7 monocyte macrophage cells line (TIB-71) was purchased from the American Type Culture Collection (Manassas, Va.). The cells were grown in T-75 flasks containing DMEM (Gibco-BRL, Grand Island, N.Y.) supplemented with 1 mM pyruvate, 4.5 g/L glucose and […] fetal bovine serum Macrophages were plated at 2.0×10^4 cells/well in 24-well plates and experiments were performed when cells were near confluence. Macrophages were immunostimulated with 50 ng/ml lipopolysaccharide (LPS) from E. coli serotype 0111:B4 (Signia, St. Louis, Mo.) and 50 U/ml recombinant mouse interferon gamma (INF-γ, R&D Systems, Minneapolis,Minn.). Macrophages were used between passages 2-8. Cell cultures were kept in a 37° C. incubator with air and 5% carbon dioxide.
NOS2 was induced in RAW cells using a mixture of interferon-γ and lipopolysaccharide (LPS) referred to as "cytomix." Unstimulated (basal) and activated (cytomix) macrophages were treated with 0.1 mM paraquat or not treated with paraquat and cytotoxicity and NO production were assessed at 24 hours.

T1 sequence (P29476 whole entry): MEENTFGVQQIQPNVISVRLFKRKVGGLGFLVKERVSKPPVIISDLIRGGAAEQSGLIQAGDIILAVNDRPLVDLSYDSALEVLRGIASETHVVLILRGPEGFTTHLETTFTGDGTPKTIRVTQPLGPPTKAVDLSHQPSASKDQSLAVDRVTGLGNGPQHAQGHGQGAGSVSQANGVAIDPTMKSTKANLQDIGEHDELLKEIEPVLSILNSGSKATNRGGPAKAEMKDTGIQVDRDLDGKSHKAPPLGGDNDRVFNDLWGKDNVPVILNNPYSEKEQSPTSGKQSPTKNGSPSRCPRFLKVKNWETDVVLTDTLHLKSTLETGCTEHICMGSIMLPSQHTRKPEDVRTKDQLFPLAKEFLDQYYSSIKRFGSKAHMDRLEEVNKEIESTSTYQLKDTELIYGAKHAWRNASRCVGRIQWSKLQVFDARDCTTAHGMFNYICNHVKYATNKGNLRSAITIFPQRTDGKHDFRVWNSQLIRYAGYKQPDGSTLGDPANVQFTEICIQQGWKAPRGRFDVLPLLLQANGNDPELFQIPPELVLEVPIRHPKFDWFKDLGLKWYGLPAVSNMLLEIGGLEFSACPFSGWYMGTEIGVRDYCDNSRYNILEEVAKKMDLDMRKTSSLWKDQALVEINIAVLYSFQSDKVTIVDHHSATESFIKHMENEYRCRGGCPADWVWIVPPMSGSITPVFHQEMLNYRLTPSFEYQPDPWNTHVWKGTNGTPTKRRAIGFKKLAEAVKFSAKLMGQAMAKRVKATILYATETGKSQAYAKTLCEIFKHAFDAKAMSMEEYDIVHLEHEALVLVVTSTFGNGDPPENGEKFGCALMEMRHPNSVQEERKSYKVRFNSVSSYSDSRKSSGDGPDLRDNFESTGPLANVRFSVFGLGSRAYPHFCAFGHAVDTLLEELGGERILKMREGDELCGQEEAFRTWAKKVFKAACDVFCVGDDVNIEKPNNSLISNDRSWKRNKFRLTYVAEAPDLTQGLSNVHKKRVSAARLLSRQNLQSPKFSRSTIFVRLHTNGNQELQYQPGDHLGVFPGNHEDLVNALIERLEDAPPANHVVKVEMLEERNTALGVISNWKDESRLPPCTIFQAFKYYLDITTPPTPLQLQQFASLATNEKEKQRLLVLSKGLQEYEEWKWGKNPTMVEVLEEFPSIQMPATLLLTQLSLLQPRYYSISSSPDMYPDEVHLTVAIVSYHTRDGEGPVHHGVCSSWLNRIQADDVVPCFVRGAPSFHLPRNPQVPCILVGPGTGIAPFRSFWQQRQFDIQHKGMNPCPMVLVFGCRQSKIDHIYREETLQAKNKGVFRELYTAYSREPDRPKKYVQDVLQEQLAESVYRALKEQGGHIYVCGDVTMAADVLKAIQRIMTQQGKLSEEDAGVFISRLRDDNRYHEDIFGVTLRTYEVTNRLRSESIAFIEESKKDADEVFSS

C[n+]1ccc(-c2cc[n+](C)cc2)cc1 [paraquat]
restenosis or angina [1]: without further episode of restenosis or angina
increase in NADPH oxidation over the basal rate ([2]; 25 μM paraquat without NOS inhibitor, FIG. 2(a)): about three-fold
NOS diaphorase / superoxide formation ([2]; conclusion of Background Example 1): is an NOS diaphorase and causes superoxide formation
paraquat diaphorase activity of NOS1 ([2]; in the presence of 1 mM L-arginine): NOS1 was found to exhibit paraquat diaphorase activity
NADPH oxidation ([2]; increasing paraquat concentrations, 1 mM L-arginine, pH 7.4, 37° C., FIG. 1(a)): concentration-dependent increase in NADPH oxidation
increase in LDH release [3]: three-fold
patient condition [4]: the patient is stabilized
blood pressure ([4]; from 80/60): 100/70
EDRF responses / vessel constriction, conclusion ([5]; conclusion of Background Example 3): blocks EDRF responses and thereby constricts blood vessels
inhibition of EDRF-induced relaxation, in words ([5]; increasing paraquat, 15 min before acetylcholine, phenylephrine 1 μM, FIG. 3(a)): dose-dependent inhibition of EDRF-induced relaxation
aconitase activity ([6]; paraquat 0.1 mM plus 250 μM DETA NONOate): not seen in the paraquat/DETA NONOate group
aconitase activity ([6]; paraquat 0.1 mM plus cytomix): a decrease in aconitase activity is seen
NOS2 expression [7]: not affected
